Assay results from patent US20150231093A1, “METHODS AND COMPOSITIONS FOR COUNTERMEASURES AGAINST RADIATION” (THE UNIVERSITY OF CHICAGO, priority 2014, published 2015).

Assays:
[1] = Tolerability of the i.p. doses used in mice
Method: For in vivo studies, mice were injected i.p. with a final volume of 0.2 ml for all single and drug combinations used. […] Captopril was injected at a final concentration of 200 mg/kg body weight, MESNA was injected at a final concentration of 300 mg/kg body weight, and NAC was injected at a concentration of 400 mg/kg body weight.

mouse splenocytes = conditions: i.p. 24 h following 7 Gy; amifostine 400 mg/kg, metformin 250 mg/kg
[2] = 250 mg/kg i.p. 24 h following 7 Gy, counted 13 days after irradiation
[3] = tested on: human microvascular endothelial cells (HMEC); test: In vitro cell survival (colony) assay after 4 Gy, HMEC; format: cell-based; conditions: 4 mM, 30 min prior to 4 Gy
Source text: (§1) In Vitro Cell Survival Assay. […] Unirradiated cells served as controls. Immediately following irradiation, cells were counted, diluted, and known numbers seeded into 100-mm tissue culture dishes to allow the development of 50 to 150 colonies per dish. Colonies were stained with 20% crystal violet and scored 12 days after plating.

[4] = tested on: mouse embryo fibroblasts (MEF); test: In vitro cell survival (colony) assay after 4 Gy, MEF; format: cell-based; conditions: 4 mM, 30 min prior to 4 Gy
Source text: as §1

[5] = tested on: SA-NH murine sarcoma cells; test: In vitro cell survival (colony) assay after 4 Gy, SA-NH cells; format: cell-based; conditions: 4 mM, 30 min prior to 4 Gy
Source text: as §1

C[C@H](CS)C(=O)N1CCC[C@H]1C(=O)O [Captopril, captopril]
toxicity of dose used ([1]; 200 mg/kg body weight): non-toxic

O=S(=O)([O-])CCS.[Na+] [MESNA, sodium 2-sulfanylethanesulfonate]
toxicity of dose used ([1]; 300 mg/kg body weight): non-toxic

CN(C)C(=N)NC(=N)N.Cl [Metformin, 1,1-Dimethylbiguanide hydrochloride]
protection of irradiated animals (in words) (mouse splenocytes): significantly protected
average number of spleen nodules [2]: 18

CC(=O)N[C@@H](CS)C(=O)O [NAC, N-acetyl-cysteine]
toxicity of dose used ([1]; 400 mg/kg body weight): non-toxic

NCCCNCCS [WR1065, 2-[(aminopropyl)amino] ethanethiol]
protection ratio [3]: 1.8
protection ratio [4]: 1.9
protection ratio [5]: 1.6
